How the values were obtained:
Type in all cases: biochemical
Settings in all cases: 20 nM
PDE4A1A = molecular target: T1, PDE4A1A (Homo sapiens, UniProt P27815); test: PDE4 inhibitory activity assay (FAM-cAMP enzymatic reaction), PDE4A1A
T1 construct: purchased BPS 60040
Summary of the method: (§1)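 Each isoform is incubated with test compound for 15 min at room temperature before FAM-cAMP substrate starts a 30-min reaction.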

PDE4B1 = molecular target: T2, PDE4B1 (Homo sapiens, UniProt Q07343); test: PDE4 inhibitory activity assay (FAM-cAMP enzymatic reaction), PDE4B1
T2 construct: purchased BPS 60041
Summary of the method: as §1

PDE4D2 = PDE4D2 (Homo sapiens, UniProt Q08499); test: PDE4 inhibitory activity assay (FAM-cAMP enzymatic reaction), PDE4D2
Summary of the method: as §1

Sequence of PDE4D2 (Q08499 303-809): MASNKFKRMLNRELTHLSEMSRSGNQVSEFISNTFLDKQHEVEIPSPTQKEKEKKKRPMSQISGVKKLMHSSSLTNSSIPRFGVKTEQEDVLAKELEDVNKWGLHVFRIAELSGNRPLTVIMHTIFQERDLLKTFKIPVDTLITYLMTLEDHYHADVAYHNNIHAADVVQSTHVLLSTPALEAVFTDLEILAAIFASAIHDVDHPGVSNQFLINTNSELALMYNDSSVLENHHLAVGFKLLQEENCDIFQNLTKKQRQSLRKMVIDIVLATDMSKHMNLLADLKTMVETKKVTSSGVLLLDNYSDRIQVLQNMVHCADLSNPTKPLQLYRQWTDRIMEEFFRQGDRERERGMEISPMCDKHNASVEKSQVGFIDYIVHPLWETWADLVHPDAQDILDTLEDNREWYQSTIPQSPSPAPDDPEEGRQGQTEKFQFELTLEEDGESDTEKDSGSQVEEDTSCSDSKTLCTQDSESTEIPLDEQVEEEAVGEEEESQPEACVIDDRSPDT
T1 sequence (P27815 1-647 isoform P27815-4): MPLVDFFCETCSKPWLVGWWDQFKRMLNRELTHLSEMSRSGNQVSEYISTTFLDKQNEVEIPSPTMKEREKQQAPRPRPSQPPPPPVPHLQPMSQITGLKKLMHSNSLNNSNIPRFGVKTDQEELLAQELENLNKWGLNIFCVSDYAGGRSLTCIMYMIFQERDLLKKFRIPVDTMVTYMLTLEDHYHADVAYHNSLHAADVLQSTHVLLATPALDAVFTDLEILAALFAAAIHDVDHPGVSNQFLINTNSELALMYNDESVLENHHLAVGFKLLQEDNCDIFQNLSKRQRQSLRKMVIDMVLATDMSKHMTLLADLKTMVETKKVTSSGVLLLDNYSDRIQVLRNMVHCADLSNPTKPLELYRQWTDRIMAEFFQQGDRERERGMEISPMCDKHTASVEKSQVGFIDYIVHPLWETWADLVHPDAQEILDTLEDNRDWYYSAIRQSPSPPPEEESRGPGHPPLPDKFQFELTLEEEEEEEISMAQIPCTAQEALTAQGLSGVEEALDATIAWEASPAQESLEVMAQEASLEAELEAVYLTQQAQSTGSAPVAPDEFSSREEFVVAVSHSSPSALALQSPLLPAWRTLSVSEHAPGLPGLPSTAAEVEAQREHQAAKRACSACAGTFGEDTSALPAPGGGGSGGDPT
T2 sequence (Q07343 whole entry): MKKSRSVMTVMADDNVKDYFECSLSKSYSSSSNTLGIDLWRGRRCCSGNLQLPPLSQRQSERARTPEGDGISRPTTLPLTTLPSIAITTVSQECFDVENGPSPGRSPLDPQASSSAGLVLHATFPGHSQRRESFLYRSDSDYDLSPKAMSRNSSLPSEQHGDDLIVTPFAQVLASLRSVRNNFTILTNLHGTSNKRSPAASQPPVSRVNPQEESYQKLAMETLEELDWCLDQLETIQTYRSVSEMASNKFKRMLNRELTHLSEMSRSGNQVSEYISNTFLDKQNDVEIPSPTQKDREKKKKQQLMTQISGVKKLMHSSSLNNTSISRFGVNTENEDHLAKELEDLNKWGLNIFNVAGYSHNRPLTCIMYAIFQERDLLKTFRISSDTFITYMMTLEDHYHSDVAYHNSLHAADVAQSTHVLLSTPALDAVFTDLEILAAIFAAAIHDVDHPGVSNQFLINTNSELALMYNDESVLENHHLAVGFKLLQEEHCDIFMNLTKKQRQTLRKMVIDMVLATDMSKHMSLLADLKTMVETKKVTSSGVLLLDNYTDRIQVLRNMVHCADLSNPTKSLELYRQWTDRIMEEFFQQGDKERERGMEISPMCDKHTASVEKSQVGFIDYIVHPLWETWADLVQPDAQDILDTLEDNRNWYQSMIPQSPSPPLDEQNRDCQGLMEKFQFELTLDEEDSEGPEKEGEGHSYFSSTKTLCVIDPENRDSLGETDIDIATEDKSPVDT

SMILES: CCOc1nc([C@@H](CS(C)(=O)=O)n2c(=O)[nH]c3cc(-c4c(F)cccc4F)cnc32)ccc1OC [Ex. 88, (S)-6-(2,6-difluorophenyl)-3-(1-(6-ethoxy-5-methoxypyridin-2-yl)-2-(methylsulfonyl)ethyl)-1H-imidazo[4,5-b]pyridin-2(3H)-one]
- PDE4 A1 inhibitory effect at 20 nM (PDE4A1A): +
- PDE4 B1 inhibitory effect at 20 nM (PDE4B1): +
- PDE4 D2 inhibitory effect at 20 nM (PDE4D2): +

SMILES: CCOc1nc([C@@H](CS(C)(=O)=O)n2c(=O)n(C3CC3)c3cc(C)ccc32)ccc1OC [Ex. 209, (S)-3-cyclopropyl-1-(1-(6-ethoxy-5-methoxypyridin-2-yl)-2-(methylsulfonyl)ethyl)-5-methyl-1H-benzo[d]imidazol-2(3H)-one]
- PDE4 A1 inhibitory effect at 20 nM (PDE4A1A): +
- PDE4 B1 inhibitory effect at 20 nM (PDE4B1): +
- PDE4 D2 inhibitory effect at 20 nM (PDE4D2): +

SMILES: CCOc1nc([C@@H](CS(C)(=O)=O)n2c(=O)[nH]c3cc(-c4ccccc4C4CC4)cnc32)ccc1OC [Ex. 87, (S)-6-(2-cyclopropylphenyl)-3-(1-(6-ethoxy-5-methoxypyridin-2-yl)-2-(methylsulfonyl)ethyl)-1H-imidazo[4,5-b]pyridin-2(3H)-one]
- PDE4 A1 inhibitory effect at 20 nM (PDE4A1A): +
- PDE4 B1 inhibitory effect at 20 nM (PDE4B1): +
- PDE4 D2 inhibitory effect at 20 nM (PDE4D2): +

SMILES: CCOc1nc([C@@H](CS(C)(=O)=O)n2c(=O)[nH]c3c(C)c(-c4cc(F)c(F)cc4F)cnc32)ccc1OC [Ex. 29, (S)-6-(2,4,5-trifluorophenyl)-3-(1-(6-ethoxy-5-methoxypyridin-2-yl)-2-(methylsulfonyl)ethyl)-7-methyl-1H-imidazo[4,5-b]pyridin-2(3H)-one]
- PDE4 A1 inhibitory effect at 20 nM (PDE4A1A): +
- PDE4 B1 inhibitory effect at 20 nM (PDE4B1): +
- PDE4 D2 inhibitory effect at 20 nM (PDE4D2): +

SMILES: CCOc1nc([C@@H](CS(C)(=O)=O)n2c(=O)[nH]c3c(C)c(-c4cc(C)ccc4F)cnc32)ccc1OC [Ex. 38, (S)-6-(2-fluoro-5-methylphenyl)-3-(1-(6-ethoxy-5-methoxypyridin-2-yl)-2-(methylsulfonyl)ethyl)-7-methyl-1H-imidazo[4,5-b]pyridin-2(3H)-one]
- PDE4 A1 inhibitory effect at 20 nM (PDE4A1A): +
- PDE4 B1 inhibitory effect at 20 nM (PDE4B1): +
- PDE4 D2 inhibitory effect at 20 nM (PDE4D2): +

SMILES: CCOc1nc([C@@H](CS(C)(=O)=O)n2c(=O)n(C)c3c(C)c(-c4ccccn4)cnc32)ccc1OC [Ex. 19, (S)-3-(1-(6-ethoxy-5-methoxypyridin-2-yl)-2-(methylsulfonyl)ethyl)-1,7-dimethyl-6-(pyridin-2-yl)-1H-imidazo[4,5-b]pyridin-2(3H)-one]
- PDE4 A1 inhibitory effect at 20 nM (PDE4A1A): +
- PDE4 B1 inhibitory effect at 20 nM (PDE4B1): +
- PDE4 D2 inhibitory effect at 20 nM (PDE4D2): +

SMILES: CCOc1nc([C@@H](CS(C)(=O)=O)n2c(=O)n(C)c3cc(-c4cc(F)ccc4C)ccc32)ccc1OC [Ex. 172, (S)-5-(5-fluoro-2-methylphenyl)-1-(1-(6-ethoxy-5-methoxypyridin-2-yl)-2-(methylsulfonyl)ethyl)-3-methyl-1H-benzo[d]imidazol-2(3H)-one]
- PDE4 A1 inhibitory effect at 20 nM (PDE4A1A): +
- PDE4 B1 inhibitory effect at 20 nM (PDE4B1): +
- PDE4 D2 inhibitory effect at 20 nM (PDE4D2): +

SMILES: CCOc1nc([C@@H](CS(C)(=O)=O)n2c(=O)n(C)c3cc(-c4cccc(C)c4C)ccc32)ccc1OC [Ex. 167, (S)-5-(2,3-dimethylphenyl)-1-(1-(6-ethoxy-5-methoxypyridin-2-yl)-2-(methylsulfonyl)ethyl)-3-methyl-1H-benzo[d]imidazol-2(3H)-one]
- PDE4 A1 inhibitory effect at 20 nM (PDE4A1A): +
- PDE4 B1 inhibitory effect at 20 nM (PDE4B1): +
- PDE4 D2 inhibitory effect at 20 nM (PDE4D2): +

SMILES: CCOc1nc([C@@H](CS(C)(=O)=O)n2c(=O)n(CC)c3c(C)c(-c4ccccc4C)cnc32)ccc1OC [Ex. 50, (S)-3-(1-(6-ethoxy-5-methoxypyridin-2-yl)-2-(methylsulfonyl)ethyl)-1-ethyl-7-methyl-6-(o-methylphenyl)-1H-imidazo[4,5-b]pyridin-2(3H)-one]
- PDE4 A1 inhibitory effect at 20 nM (PDE4A1A): +
- PDE4 B1 inhibitory effect at 20 nM (PDE4B1): +
- PDE4 D2 inhibitory effect at 20 nM (PDE4D2): +

SMILES: CCOc1nc([C@H](CS(C)(=O)=O)n2c(=O)[nH]c3c(C)c(-c4ccccc4)cnc32)ccc1OC(F)F [Ex. 62, (R)-3-(1-(5-(difluoromethoxy)-6-ethoxypyridin-2-yl)-2-(methylsulfonyl)ethyl)-7-methyl-6-phenyl-1H-imidazo[4,5-b]pyridin-2(3H)-one]
- PDE4 A1 inhibitory effect at 20 nM (PDE4A1A): −
- PDE4 B1 inhibitory effect at 20 nM (PDE4B1): −
- PDE4 D2 inhibitory effect at 20 nM (PDE4D2): −

SMILES: CCOc1nc([C@@H](CS(C)(=O)=O)n2c(=O)[nH]c3cc(C(=O)OC(C)C)ccc32)ccc1OC [Ex. 213, (S)-isopropyl 1-(1-(6-ethoxy-5-methoxypyridin-2-yl)-2-(methylsulfonyl)ethyl)-2-oxo-2,3-dihydro-1H-benzo[d]imidazole-5-carboxylate]
- PDE4 A1 inhibitory effect at 20 nM (PDE4A1A): +
- PDE4 B1 inhibitory effect at 20 nM (PDE4B1): +
- PDE4 D2 inhibitory effect at 20 nM (PDE4D2): +

From US20230141101A1, “PDE4 INHIBITOR COMPOUND AND MEDICAL USE THEREOF” (Suzhou Longbotai Pharmaceuticals Co., Ltd., priority 2020, published 2023)
